Here are results for 18 molecules from patent US11459338B2, “Heterocyclic compounds as PRMT5 inhibitors” (JUBILANT EPISCRIBE LLC, priority 2018, dated 2022).

One experiment deals with T1, PRMT5/MEP50 (Homo sapiens, UniProt O14744).
T1 construct: Full-length human PRMT5 (NP_006100)
As to the kind of experiment: PRMT5/MEP50 enzyme assay on peptide substrates (3H-SAM Flashplate). The experiment is classed as biochemical. The settings on record: PRMT5/MEP50 10 nM, H4 1-15aa peptide 100 nM, 3H-SAM 1 μM.

The next experiment concerns Z-138 cells. As to the kind of experiment: Z-138 long term proliferation assay (Cell Titer Glo). Format: cell-based. The conditions noted are these: Homo sapiens; for GI50: 192 h, Z-138 cells, cell viability, day 8, read-out: PRMT5 Z138 GI50 Day 8 μM; for IC50: Z-138, 192 h, summary of Table 1, read-out: IC50 value (all the three assays): Z138 GI50 Day 8. In outline:
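Z-138 cells exposed to ten-point 3-fold dilutions (top 10 μM, 0.3% DMSO) for 96 h at 37° C., 5% CO2, then re-dosed for four more days.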
A general note: ATP-based viability assays read luminescence as a measure of living cells.

In experiment [1] the test system is Symmetric di-methyl arginine in Z-138 cells. The experiment in a line: Z-138 methylation assay, ELISA for detection of symmetric di-methyl arginine. The conditions noted are these: Homo sapiens. The experiment is classed as cell-based. The procedure: General reagents. […] Iscove's Modified Dulbecco's Medium (IMDM), Horse serum, penicillin-streptomycin, PBS and TMB-ELISA substrate solution were purchased from ThermoFisher Scientific. Symmetric di-methyl arginine antibody was purchased from Cell Signaling Technologies.Anti-SNRPD3/SmD3 antibody was purchased from Sigma-Aldrich.
ELISA for detection of Symmetric di-methyl arginine. […] A compound source plate was prepared by performing ten-point 3-fold dilution in DMSO, such that the final top concentration of the compound was 10 μM, and DMSO was 0.3%. The total volume of compounds added was 20 μL. The cells were incubated for 96 h at 37° C., 5% CO2. Z-138 cells were directly lysed in media with 3× Lysis Buffer (1×: 10 mM HEPES pH7.9, 5 mM MgCl2, 1M NaCl, 0.25M Sucrose, 1% Triton X-100, 1 mM PMSF, Protease & Phosphatase inhibitors). […] Plates were incubated at room temperature for a minimum of 3 h and then washed with PBS-Tween 20 (0.05%). The plates were blocked with 5% BSA at room temperature for 1 h, washed with PBS-Tween 20 and incubated with primary antibody at 4 C overnight.

Setting [2] is: Z-138 cells, 96 h (day 4), read-out: PRMT5 Z138 SDMA ELISA Day 4 μM.
Where [3] appears, read: Z-138, 96 h, summary of Table 1, read-out: IC50 value (all the three assays): Z138 SDMA ELISA Day 4.

Read-outs that look alike come from different tables or passages of the source.

T1 sequence (O14744 whole entry): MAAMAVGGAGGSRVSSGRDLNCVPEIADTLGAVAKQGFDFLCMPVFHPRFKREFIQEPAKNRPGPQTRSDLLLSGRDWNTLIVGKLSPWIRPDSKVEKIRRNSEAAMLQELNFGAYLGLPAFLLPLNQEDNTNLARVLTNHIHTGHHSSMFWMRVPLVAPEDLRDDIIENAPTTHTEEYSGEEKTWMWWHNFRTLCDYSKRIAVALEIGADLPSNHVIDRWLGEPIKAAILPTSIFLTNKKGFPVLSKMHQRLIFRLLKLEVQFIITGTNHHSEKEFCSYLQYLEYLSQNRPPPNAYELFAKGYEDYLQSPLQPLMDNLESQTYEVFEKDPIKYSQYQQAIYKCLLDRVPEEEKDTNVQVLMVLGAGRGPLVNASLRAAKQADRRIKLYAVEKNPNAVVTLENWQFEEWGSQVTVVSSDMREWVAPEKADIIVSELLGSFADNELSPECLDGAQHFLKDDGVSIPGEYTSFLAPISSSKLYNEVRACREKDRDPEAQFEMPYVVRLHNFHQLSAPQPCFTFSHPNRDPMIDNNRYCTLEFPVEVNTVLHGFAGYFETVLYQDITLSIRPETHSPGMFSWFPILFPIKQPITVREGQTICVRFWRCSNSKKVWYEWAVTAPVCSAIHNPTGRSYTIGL
T1 sequence (Q9BQA1 whole entry partner): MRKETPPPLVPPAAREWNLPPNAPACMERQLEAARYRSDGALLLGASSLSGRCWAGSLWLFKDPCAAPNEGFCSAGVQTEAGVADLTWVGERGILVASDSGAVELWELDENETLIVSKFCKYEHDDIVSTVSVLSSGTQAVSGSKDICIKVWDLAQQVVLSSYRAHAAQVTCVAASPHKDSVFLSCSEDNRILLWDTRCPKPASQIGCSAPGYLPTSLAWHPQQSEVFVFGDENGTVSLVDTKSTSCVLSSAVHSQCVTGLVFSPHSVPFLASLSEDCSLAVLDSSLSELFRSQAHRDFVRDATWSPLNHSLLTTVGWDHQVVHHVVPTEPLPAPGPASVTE

Broadly, the GI50 is the concentration giving 50% growth inhibition. Consider `CN(C[C@H](O)CN1CCc2ccccc2C1)C(=O)c1cn2cc(-c3ccn(C)c(=O)c3)ncc2n1` [Example 93, (R)—N-(3-(3,4-dihydroisoquinolin-2(1H)-yl)-2-hydroxypropyl)-N-methyl-6-(1-methyl-2-oxo-1,2-dihydropyridin-4-yl)imidazo[1,2-a]pyrazine-2-carboxamide], for which the IC50 (at PRMT5/MEP50; in experiment [1] (setting [2])) was 10 to 1000 nM each time. Further, the GI50 in the experiment on Z-138 cells lay in the range of 1000 to 5000 nM.

Turning to `O=C(NCC(O)CNC1Cc2ccccc2C1)c1cn2cc(C(F)(F)F)ccc2n1` (centres unmarked) [Example 96], the IC50 (against PRMT5/MEP50; in the experiment on Z-138 cells; in experiment [1] (setting [3]); in experiment [1] (setting [2])) was 10 to 1000 nM each time. The GI50 in the experiment with Z-138 cells fell in the range of 10 to 1000 nM.

For the molecule `O=C(NC(CO)CCN1CCc2ccccc2C1)c1cn2cc(C(F)(F)F)ccc2n1` (centres unmarked) [Example 100, N-(4-(3,4-dihydroisoquinolin-2(1H)-yl)-1-hydroxybutan-2-yl)-6-(trifluoromethyl)imidazo[1,2-a]pyridine-2-carboxamide], the IC50 was in the range of 1000 to 5000 nM on PRMT5/MEP50 and 10 to 1000 nM in experiment [1] (setting [2]). In addition, in the experiment with Z-138 cells, the concentration for 50% growth inhibition (GI50) fell in the range of 1000 to 5000 nM.

Regarding `CC1CCc2nc(C(=O)NCC(O)CN3CCc4ccccc4C3)cn2C1` (centres unmarked) [Example 102, N-(3-(3,4-dihydroisoquinolin-2(1H)-yl)-2-hydroxypropyl)-6-methyl-5,6,7,8-tetrahydroimidazo[1,2-a]pyridine-2-carboxamide], the values for the IC50 (against PRMT5/MEP50; in experiment [1] (setting [2])) were 1000 to 5000 nM and 10 to 1000 nM, respectively. The concentration for 50% growth inhibition (GI50) with Z-138 cells lay within 10 to 1000 nM.

`CC1CCn2cc(C(=O)NCC(O)CN3CCc4ccccc4C3)nc2C1` (centres unmarked) [Example 103, N-(3-(3,4-dihydroisoquinolin-2(1H)-yl)-2-hydroxypropyl)-7-methyl-5,6,7,8-tetrahydroimidazo[1,2-a]pyridine-2-carboxamide]: the figures for the IC50 (against PRMT5/MEP50; in experiment [1] (setting [2])) were 1000 to 5000 nM and 10 to 1000 nM, respectively. Moreover, in the experiment with Z-138 cells, the GI50 lay within 10 to 1000 nM.

Consider `CCCC1CCc2nc(C(=O)NCC(O)CN3CCc4ccccc4C3)cn2C1` (centres unmarked) [Example 106, N-(3-(3,4-dihydroisoquinolin-2(1H)-yl)-2-hydroxypropyl)-6-propyl-5,6,7,8-tetrahydroimidazo[1,2-a]pyridine-2-carboxamide], for which the IC50 (against PRMT5/MEP50; in experiment [1] (setting [2])) was 10 to 1000 nM throughout. In the experiment with Z-138 cells, the GI50 lay in the range of 1000 to 5000 nM.

Take `CO[C@@H]1CCc2nc(C(=O)NC[C@H](O)CN3CCc4ccccc4C3)cn2C1` [Example 107A, (R)—N—((S)-3-(3,4-dihydroisoquinolin-2(1H)-yl)-2-hydroxypropyl)-6-methoxy-5,6,7,8-tetrahydroimidazo[1,2-a]pyridine-2-carboxamide]: the IC50 against PRMT5/MEP50 is over 5000 nM; in experiment [1] (setting [2]), 10 to 1000 nM. Moreover, the GI50 with Z-138 cells was 1000 to 5000 nM.

On to `CC(C)C1CCc2nc(C(=O)NC[C@H](O)CN3CCc4ccccc4C3)cn2C1` (stereo partly drawn) [Example 108, N—((S)-3-(3,4-dihydroisoquinolin-2(1H)-yl)-2-hydroxypropyl)-6-isopropyl-5,6,7,8-tetrahydroimidazo[1,2-a]pyridine-2-carboxamide], for which the IC50 lay within 1000 to 5000 nM at PRMT5/MEP50 and 10 to 1000 nM in experiment [1] (setting [2]). In addition, the concentration for 50% growth inhibition (GI50) with Z-138 cells was in the range of 10 to 1000 nM.

For `O=C(NCC(O)CN1CCc2ccccc2C1)c1cn2c(n1)CC(c1ccccc1)CC2` (centres unmarked) [Example 109, N-(3-(3,4-dihydroisoquinolin-2(1H)-yl)-2-hydroxypropyl)-7-phenyl-5,6,7,8-tetrahydroimidazo[1,2-a]pyridine-2-carboxamide], the IC50 on PRMT5/MEP50 is 1000 to 5000 nM; in experiment [1] (setting [2]) it was 10 to 1000 nM. Further, in the experiment with Z-138 cells, the 50% growth inhibitory concentration (GI50) is over 5000 nM.

As to `O=C(NCC(O)CN1CCc2ccccc2C1)c1cn2c(n1)CCC(c1ccccc1)C2` (centres unmarked) [Example 110, N-(3-(3,4-dihydroisoquinolin-2(1H)-yl)-2-hydroxypropyl)-6-phenyl-5,6,7,8-tetrahydroimidazo[1,2-a]pyridine-2-carboxamide], the IC50 lay within 1000 to 5000 nM against PRMT5/MEP50 and 10 to 1000 nM in experiment [1] (setting [2]). In the experiment on Z-138 cells, the 50% growth inhibitory concentration (GI50) was in the range of 1000 to 5000 nM.

Regarding `Cn1cc(C2CCc3nc(C(=O)NCC(O)CN4CCc5ccccc5C4)cn3C2)cn1` (centres unmarked) [Example 111, N-(3-(3,4-dihydroisoquinolin-2(1H)-yl)-2-hydroxypropyl)-6-(1-methyl-1H-pyrazol-4-yl)-5,6,7,8-tetrahydroimidazo[1,2-a]pyridine-2-carboxamide], the IC50 was in the range of 1000 to 5000 nM against PRMT5/MEP50 and 10 to 1000 nM in experiment [1] (setting [2]). Also, the GI50 in the experiment on Z-138 cells lay within 1000 to 5000 nM.

Regarding `O=C(NC[C@H](O)CN1CCc2ccccc2C1)c1cn2c(n1)COC(c1ccccc1)C2` (stereo partly drawn) [Example 112, N—((S)-3-(3,4-dihydroisoquinolin-2(1H)-yl)-2-hydroxypropyl)-6-phenyl-5,6-dihydro-8H-imidazo[2,1-c][1,4]oxazine-2-carboxamide], the IC50 fell in the range of 1000 to 5000 nM against PRMT5/MEP50 and 10 to 1000 nM in experiment [1] (setting [2]). Moreover, the GI50 in the experiment on Z-138 cells was 1000 to 5000 nM.

As for `CC(C)N1CCn2cc(C(=O)NCC(O)CN3CCc4ccccc4C3)nc2C1` (centres unmarked) [Example 113, N-(3-(3,4-dihydroisoquinolin-2(1H)-yl)-2-hydroxypropyl)-7-isopropyl-5,6,7,8-tetrahydroimidazo [1,2-a] pyrazine-2-carboxamide], the IC50 at PRMT5/MEP50 was over 5000 nM; in experiment [1] (setting [2]), 1000 to 5000 nM. Further, the 50% growth inhibitory concentration (GI50) in the experiment with Z-138 cells was over 5000 nM.

`O=C(NC[C@H](O)CN1CCc2ccccc2C1)c1cn2c(n1)CCC(C(F)(F)F)C2` (stereo partly drawn) [Example 114, N—((S)-3-(3,4-dihydroisoquinolin-2(1H)-yl)-2-hydroxypropyl)-6-(trifluoromethyl)-5,6,7,8-tetrahydroimidazo[1,2-a]pyridine-2-carboxamide]: the values for the IC50 (at PRMT5/MEP50; in experiment [1] (setting [2])) were 1000 to 5000 nM and 10 to 1000 nM, respectively. Moreover, the GI50 in the experiment with Z-138 cells lay within 10 to 1000 nM.

For `O=C(NC[C@H](O)CN1CCc2ccccc2C1)c1cn2c(n1)CCC(c1ccc(F)cc1)C2` (stereo partly drawn) [Example 115, N—((S)-3-(3,4-dihydroisoquinolin-2(1H)-yl)-2-hydroxypropyl)-6-(4-fluorophenyl)-5,6,7,8-tetrahydroimidazo[1,2-a]pyridine-2-carboxamide], the IC50 (against PRMT5/MEP50; with Z-138 cells; in experiment [1] (setting [3]); in experiment [1] (setting [2])) was 10 to 1000 nM each time. In the experiment on Z-138 cells, the GI50 lay within 10 to 1000 nM.

As to `O=C(NC[C@H](O)CN1CCc2ccccc2C1)c1cn2c(n1)COC(c1ccc(F)cc1)C2` (stereo partly drawn) [Example 116, N—((S)-3-(3,4-dihydroisoquinolin-2(1H)-yl)-2-hydroxypropyl)-6-(4-fluorophenyl)-5,6-dihydro-8H-imidazo[2,1-c][1,4]oxazine-2-carboxamide], the IC50 (against PRMT5/MEP50; with Z-138 cells; in experiment [1] (setting [3]); in experiment [1] (setting [2])) was 10 to 1000 nM in each case. In the experiment on Z-138 cells, the GI50 lay in the range of 10 to 1000 nM.

For the molecule `O=C(NC[C@H](O)CN1CCc2ccccc2C1)c1cn2c(n1)CC[C@@H](C(F)(F)F)C2` [Example 121A, (R)—N—((S)-3-(3,4-dihydroisoquinolin-2(1H)-yl)-2-hydroxypropyl)-6-(trifluoromethyl)-5,6,7,8-tetrahydroimidazo[1,2-a]pyridine-2-carboxamide], the IC50 (against PRMT5/MEP50; with Z-138 cells; in experiment [1] (setting [3]); in experiment [1] (setting [2])) was 10 to 1000 nM in each case. In the experiment with Z-138 cells, the concentration for 50% growth inhibition (GI50) fell in the range of 10 to 1000 nM.

`O=C(NC[C@H](O)CN1CCc2ccccc2C1)c1cn2c(n1)CC[C@H](C(F)(F)F)C2` [Example 121B, (S)—N—((S)-3-(3,4-dihydroisoquinolin-2(1H)-yl)-2-hydroxypropyl)-6-(trifluoromethyl)-5,6,7,8-tetrahydroimidazo[1,2-a]pyridine-2-carboxamide]: the IC50 against PRMT5/MEP50 was in the range of 1000 to 5000 nM; in experiment [1] (setting [2]), 10 to 1000 nM. Also, in the experiment with Z-138 cells, the GI50 fell in the range of 10 to 1000 nM.
